Test results from US20240226117A1, “TREATMENT OF CONGENITAL ADRENAL HYPOPLASIA” (ReveraGen BioPharma, Inc., priority 2021, published 2024).

How the values were obtained:
DMD participants = assay: Physician-reported adverse events in vamorolone trials and published corticosteroid studies; assay type: in vivo, human
Procedure: Study visits took place quarterly, including assessment of clinical laboratory results, vital signs, and AEs. All AEs were coded using the Medical Dictionary for Regulatory Activities (MedDRA version 19.0) system for reporting (preferred term and system organ class). Clinical efficacy assessments were performed at baseline of the VBP15-002 study, at six months (end of VBP15-003 study), and the 12-month midpoint visit of the VBP15-LTE study.
Treatment-emergent AEs (TEAEs) have been published for the 2-week treatment MAD study (VBP15-002) and the 24-week dose-finding extension study (VBP15-003). TEAEs were reported with similar incidence by participants in all four vamorolone groups.
A Data and Safety Monitoring Board report on the VBP15-LTE study covering all participants enrolled in the VBP15-LTE study (inclusive beyond the 12-month midpoint assessment) included three serious AEs (2 myoglobinuria events [in the same participant] and one pneumonia), all deemed unrelated to study drug. For all reported TEAEs, 402 were deemed unrelated to vamorolone, 37 were deemed remotely related, 29 were deemed possibly related, 11 were deemed probably related, and three were deemed definitely related. Of the 14 AEs probably and definitely related to vamorolone, 10 were weight gain, 2 were increased appetite, 1 was Cushingoid features, and 1 was irritability.
The incidences of physician-reported AEs typically for corticosteroid treatment were determined for participants that had been treated with vamorolone 6.0 mg/kg/day (for any duration), taken from the March 2019 Data Safety Update Report (DSUR) (pharmacovigilance report). Incidence rates of Cushingoid features, weight gain, hirsutism, and behavior change were studied (Table 8).

ambulant boys with DMD [1] = assay: VISION-DMD Phase 2b (VBP15-004) motor efficacy, 24-week double-blind period; assay type: in vivo, human
ambulant boys with DMD [2] = assay: VBP15-004 bone turnover biomarkers; assay type: in vivo, human; conditions: for Osteocalcin, difference vs. prednisone / Procollagen 1 N-Terminal Propeptide (P1NP), difference vs. prednisone / Type I Collagen C-Telopeptides (CTX), difference vs. prednisone: Week 24, p < 0.001
glucocorticoid receptor = target: T1, glucocorticoid receptor (Homo sapiens, UniProt P04150); conditions: background statement; cited from earlier work
T1 sequence (P04150 1-777): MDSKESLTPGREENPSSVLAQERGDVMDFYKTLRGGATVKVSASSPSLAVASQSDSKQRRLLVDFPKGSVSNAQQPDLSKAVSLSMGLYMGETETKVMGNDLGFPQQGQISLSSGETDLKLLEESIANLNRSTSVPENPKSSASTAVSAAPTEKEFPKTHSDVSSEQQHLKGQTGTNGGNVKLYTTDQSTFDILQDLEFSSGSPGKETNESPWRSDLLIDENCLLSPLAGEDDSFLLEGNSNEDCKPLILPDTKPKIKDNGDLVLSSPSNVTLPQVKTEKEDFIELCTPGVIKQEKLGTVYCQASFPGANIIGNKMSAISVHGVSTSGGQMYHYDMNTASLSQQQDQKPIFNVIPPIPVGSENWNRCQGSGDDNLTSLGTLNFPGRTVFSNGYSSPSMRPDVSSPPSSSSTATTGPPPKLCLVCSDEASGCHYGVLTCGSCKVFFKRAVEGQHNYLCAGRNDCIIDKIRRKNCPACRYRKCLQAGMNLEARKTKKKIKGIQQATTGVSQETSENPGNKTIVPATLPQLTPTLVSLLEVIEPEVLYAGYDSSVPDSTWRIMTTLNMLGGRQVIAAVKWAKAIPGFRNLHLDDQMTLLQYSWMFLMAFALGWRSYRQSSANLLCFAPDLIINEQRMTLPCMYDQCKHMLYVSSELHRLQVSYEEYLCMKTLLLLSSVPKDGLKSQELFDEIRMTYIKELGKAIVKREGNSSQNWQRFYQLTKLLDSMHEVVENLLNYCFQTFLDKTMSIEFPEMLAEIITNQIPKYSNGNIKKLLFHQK

[3] = target: T2, mineralocorticoid receptor (Homo sapiens, UniProt P08235); conditions: background statement; cited from earlier work
T2 sequence (P08235 1-984): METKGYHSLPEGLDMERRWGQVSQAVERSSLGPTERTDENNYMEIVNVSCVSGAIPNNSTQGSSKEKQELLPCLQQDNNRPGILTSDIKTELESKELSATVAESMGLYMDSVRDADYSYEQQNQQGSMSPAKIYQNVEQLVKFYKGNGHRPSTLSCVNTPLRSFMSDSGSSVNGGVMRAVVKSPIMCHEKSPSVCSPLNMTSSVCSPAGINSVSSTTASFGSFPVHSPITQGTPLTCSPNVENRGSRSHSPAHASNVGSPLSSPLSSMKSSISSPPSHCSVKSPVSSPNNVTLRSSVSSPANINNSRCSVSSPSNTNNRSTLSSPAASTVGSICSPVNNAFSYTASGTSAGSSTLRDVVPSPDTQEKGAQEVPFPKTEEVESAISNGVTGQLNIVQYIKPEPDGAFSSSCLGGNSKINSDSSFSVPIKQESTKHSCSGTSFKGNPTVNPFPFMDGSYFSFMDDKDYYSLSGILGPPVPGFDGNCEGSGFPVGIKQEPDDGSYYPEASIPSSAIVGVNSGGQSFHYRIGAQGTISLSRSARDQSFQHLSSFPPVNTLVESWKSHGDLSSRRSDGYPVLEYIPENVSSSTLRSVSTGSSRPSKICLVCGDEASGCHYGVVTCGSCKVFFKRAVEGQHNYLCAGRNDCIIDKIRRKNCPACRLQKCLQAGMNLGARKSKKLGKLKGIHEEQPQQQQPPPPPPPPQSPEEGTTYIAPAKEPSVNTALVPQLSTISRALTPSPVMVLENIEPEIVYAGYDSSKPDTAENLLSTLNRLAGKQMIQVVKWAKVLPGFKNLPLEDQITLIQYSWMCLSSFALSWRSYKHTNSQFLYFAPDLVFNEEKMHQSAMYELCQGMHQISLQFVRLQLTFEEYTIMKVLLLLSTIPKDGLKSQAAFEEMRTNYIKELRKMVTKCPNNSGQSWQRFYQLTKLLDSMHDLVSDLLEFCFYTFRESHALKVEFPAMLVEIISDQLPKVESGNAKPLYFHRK

[4] = 6.0 mg/kg/day vamorolone (any duration), n = 38, DSUR 13 Mar. 2019

SMILES: C[C@@H]1C[C@H]2[C@@H]3CCC4=CC(=O)C=C[C@]4(C)C3=CC[C@]2(C)[C@@]1(O)C(=O)CO [Vamorolone, 17α,21-dihydroxy-16α-methylpregna-1,4,9(11)-triene-3,20-dione]
- Incidence of physician-reported Cushingoid (DMD participants; [4]): 2.6%
- Incidence of physician-reported behavior change (DMD participants; [4]): 0%^2
- Incidence of physician-reported hypertrichosis/hirsutism (DMD participants; [4]): 0%
- Incidence of physician-reported weight gain (DMD participants; [4]): 13.2%
- Cushingoid features among the 14 AEs probably and definitely related (DMD participants; VBP15-LTE): 1
- increased appetite among the 14 AEs probably and definitely related (DMD participants; VBP15-LTE): 2
- irritability among the 14 AEs probably and definitely related (DMD participants; VBP15-LTE): 1
- weight gain among the 14 AEs probably and definitely related (DMD participants; VBP15-LTE): 10
- TEAEs deemed definitely related (DMD participants; VBP15-LTE, all reported TEAEs): three
- TEAEs deemed possibly related (DMD participants; VBP15-LTE, all reported TEAEs): 29
- TEAEs deemed probably related (DMD participants; VBP15-LTE, all reported TEAEs): 11
- TEAEs deemed remotely related (DMD participants; VBP15-LTE, all reported TEAEs): 37
- TEAEs deemed unrelated to vamorolone (DMD participants; VBP15-LTE, all reported TEAEs): 402
- serious AEs in VBP15-LTE (Data and Safety Monitoring Board report) (DMD participants; all LTE participants, all deemed unrelated to study drug): three
- safety and tolerability over the 24-week treatment period (VBP15-003) (DMD participants; oral, all doses tested (0.25, 0.75, 2.0, 6.0 mg/kg/day)): safe and well-tolerated
- TTSTAND after 24 weeks (ambulant boys with DMD [1]; vamorolone 6 mg/kg/day group, from 6.0 seconds at baseline): 4.6 s
- TTSTAND velocity, 6MWT, TTRW endpoints compared with prednisone (ambulant boys with DMD [1]; vamorolone 6 mg/kg/day versus prednisone 0.75 mg/kg/day, 24 weeks): no statistically significant differences
- TTSTAND velocity, treatment difference versus placebo in change from baseline (ambulant boys with DMD [1]; vamorolone 6 mg/kg/day, 24 weeks, p=0.002): 0.06 rises/second
- Osteocalcin, mean (SEM) change at Week 24 (ambulant boys with DMD [2]; Vamorolone 2.0 mg, N = 17): 8.3 (3.1) ng/ml
- Procollagen 1 N-Terminal Propeptide (P1NP), mean (SEM) change at Week 24 (ambulant boys with DMD [2]; Vamorolone 2.0 mg, N = 17): 48 (27) ng/mL
- Type I Collagen C-Telopeptides (CTX), mean (SEM) change at Week 24 (ambulant boys with DMD [2]; Vamorolone 2.0 mg, N = 17): 177 (52) pg/mL
- Osteocalcin, difference vs. prednisone (ambulant boys with DMD [2]; Vamorolone 2.0 mg): 23.5 ng/mL
- Procollagen 1 N-Terminal Propeptide (P1NP), difference vs. prednisone (ambulant boys with DMD [2]; Vamorolone 2.0 mg): 182 ng/mL
- Type I Collagen C-Telopeptides (CTX), difference vs. prednisone (ambulant boys with DMD [2]; Vamorolone 2.0 mg): 477 pg/mL
- Osteocalcin, difference vs. prednisone (ambulant boys with DMD [2]; Vamorolone 6.0 mg): 16.9 ng/mL
- Procollagen 1 N-Terminal Propeptide (P1NP), difference vs. prednisone (ambulant boys with DMD [2]; Vamorolone 6.0 mg): 124 ng/mL
- Type I Collagen C-Telopeptides (CTX), difference vs. prednisone (ambulant boys with DMD [2]; Vamorolone 6.0 mg): 390 pg/mL
- binding to the glucocorticoid receptor (glucocorticoid receptor): potently binds
- activity at the mineralocorticoid receptor [3]: potent antagonist
